Literature values, collected in paper PMC12839115, “2-Arylbenzofurans as Selective Cholinesterase Inhibitors: Design, Synthesis, and Evaluation as Alzheimer’s Disease Agents” (Biomolecules, 2026).

Target: T1, BChE (EC 3.1.1.8) from equine serum (Equus caballus, UniProt P81908)
T1 construct: BChE (EC 3.1.1.8) from equine serum were employed; from tissue; host or cells: equine serum
T1 sequence (P81908 whole entry): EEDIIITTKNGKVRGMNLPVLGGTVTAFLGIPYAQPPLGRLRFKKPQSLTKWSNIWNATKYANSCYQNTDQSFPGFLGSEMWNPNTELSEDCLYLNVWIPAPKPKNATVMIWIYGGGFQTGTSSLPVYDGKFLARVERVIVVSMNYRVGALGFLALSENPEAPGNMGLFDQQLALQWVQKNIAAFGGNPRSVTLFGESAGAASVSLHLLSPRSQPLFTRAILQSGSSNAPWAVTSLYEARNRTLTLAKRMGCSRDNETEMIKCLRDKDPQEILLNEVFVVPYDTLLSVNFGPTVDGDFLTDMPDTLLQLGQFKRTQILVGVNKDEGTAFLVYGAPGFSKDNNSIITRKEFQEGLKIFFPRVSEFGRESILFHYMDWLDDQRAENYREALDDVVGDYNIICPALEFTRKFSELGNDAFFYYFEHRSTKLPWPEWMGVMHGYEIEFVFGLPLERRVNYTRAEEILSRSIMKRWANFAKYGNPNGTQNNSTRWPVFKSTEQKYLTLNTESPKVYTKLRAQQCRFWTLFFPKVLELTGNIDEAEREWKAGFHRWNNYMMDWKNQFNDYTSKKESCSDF

| SMILES | IC50 [µM] |
| --- | --- |
| Oc1cccc(-c2cc3cccc(Br)c3o2)c1 [C00010] | 7.96 ± 0.28 |
| Oc1cccc(-c2cc3cccc(Cl)c3o2)c1 [C00004] | 13.4 ± 2.57 |
